Measurements as given in patent publication US12655126B2, “Imidazole-pyrazole derivatives as antibacterials” (Hoffmann-La Roche Inc., priority 2020, dated 2026).
Counter-ions that a name gives are not always drawn.

system: Acinetobacter baumannii ATCC17961; assay: Antimicrobial susceptibility testing: 90% growth inhibitory concentration (IC90) determination; format: cell-based; conditions: Acinetobacter baumannii ATCC17961; Iso-Sensitest broth; growth by OD 600 nm over 16 h; 90% growth inhibitory concentration; read-out: ATCC 17961 IC90
Procedure: Antimicrobial Susceptibility Testing:
90% Growth Inhibitory Concentration (IC90) Determination
The in vitro antimicrobial activity of the compounds was determined according to the following procedure:
The assay used a 10-points Iso-Sensitest broth medium to measure quantitatively the in vitro activity of the compounds against Acinetobacter baumannii ATCC17961.
Stock compounds in DMSO were serially twofold diluted (e.g. range from 50 to 0.097 μM final concentration) in 384 wells microtiter plates and inoculated with 49 μl the bacterial suspension in Iso-Sensitest medium to have a final cell concentration of ˜5×10^(5) CFU/ml in a final volume/well of 50 ul/well. Microtiter plates were incubated at 35±2° C.
Bacterial cell growth was determined with the measurement of optical density at λ=600 nm each minutes over a time course of 16 h. Growth inhibition was calculated during the logarithmic growth of the bacterial cells with determination of the concentration inhibiting 50% (IC50) and 90% (IC90) of the growth.
Table 1 provides the 90% growth inhibitory concentrations (IC90) in micromoles per liter of the compounds of present invention obtained against the strain Acinetobacter baumannii ATCC17961.

Q: With Cn1c(-c2cn(-c3cnc(N)cn3)nc2C(F)(F)F)cnc1C(=O)Nc1ccc(C(=O)N2CCN(C(=O)C3CC[N+](C)(C)CC3)CC2)c(Cl)c1 [Example D16, 5-[1-(5-aminopyrazin-2-yl)-3-(trifluoromethyl)pyrazol-4-yl]-N-[3-chloro-4-[4-(1,1-dimethylpiperidin-1-ium-4-carbonyl)piperazine-1-carbonyl]phenyl]-1-methyl-imidazole-2-carboxamide] as the compound, how does the IC90 read?
A: The IC90 was 320 nM.

Q: Which IC90 does the source give for Cn1c(-c2cn(-c3ccc(N)cn3)nc2C(F)(F)F)cnc1C(=O)Nc1ccc(C(=O)N[C@H]2[C@@H]3CN(C(=O)[C@@H]4C[C@@H](O)C[N+]4(C)C)C[C@@H]32)c(Cl)c1 [Example D17, 5-[1-(5-amino-2-pyridyl)-3-(trifluoromethyl)pyrazol-4-yl]-N-[3-chloro-4-[[(exo)-3-[(2S,4R)-4-hydroxy-1,1-dimethyl-pyrrolidin-1-ium-2-carbonyl]-3-azabicyclo[3.1.0]hexan-6-yl]carbamoyl]phenyl]-1-methyl-imidazole-2-carboxamide] here?
A: Its IC90 is 300 nM.

Q: Which IC90 does the source give for COCCNc1ccc(-n2cc(-c3cnc(C(=O)Nc4ccc(C(=O)N5CCN(C(=O)C6CC[N+](C)(C)CC6)CC5)c(Cl)c4)n3C)c(C(F)(F)F)n2)nc1 [Example E2, N-[3-chloro-4-[4-(1,1-dimethylpiperidin-1-ium-4-carbonyl)piperazine-1-carbonyl]phenyl]-5-[1-[5-(2-methoxyethylamino)-2-pyridyl]-3-(trifluoromethyl)pyrazol-4-yl]-1-methyl-imidazole-2-carboxamide; formate] here?
A: The IC90 was 300 nM.

Q: Which IC90 does the source give for CCNc1ccc(-n2cc(-c3cnc(C(=O)Nc4ccc(C(=O)N5CCN(C(=O)C6CC[N+](C)(C)CC6)CC5)c(Cl)c4)n3C)c(C(F)(F)F)n2)nc1 [Example E3, N-[3-chloro-4-[4-(1,1-dimethylpiperidin-1-ium-4-carbonyl)piperazine-1-carbonyl]phenyl]-5-[1-[5-(ethylamino)-2-pyridyl]-3-(trifluoromethyl)pyrazol-4-yl]-1-methyl-imidazole-2-carboxamide; formate] here?
A: Its IC90 is 390 nM.

Q: How did the IC90 turn out when CNc1ccc(-n2cc(-c3cnc(C(=O)Nc4ccc(C(=O)N5CCN(C(=O)C[N+]6(C)CCC(O)C6)CC5)c(Cl)c4)n3C)c(C(F)(F)F)n2)nc1 (stereo not drawn) [Example E5, N-[3-chloro-4-[4-[2-(3-hydroxy-1-methyl-pyrrolidin-1-ium-1-yl)acetyl]piperazine-1-carbonyl]phenyl]-1-methyl-5-[1-[5-(methylamino)-2-pyridyl]-3-(trifluoromethyl)pyrazol-4-yl]imidazole-2-carboxamide; formate] was run?
A: The IC90 was 220 nM.

Q: Which IC90 does the source give for CNc1ccc(-n2cc(-c3cnc(C(=O)Nc4ccc(C(=O)N5CCN(C(=O)[C@@H]6[C@@H](O)CC[N+]6(C)C)CC5)c(Cl)c4)n3C)c(C(F)(F)F)n2)nc1 [Example E6, N-[3-chloro-4-[4-[(2S,3S)-3-hydroxy-1,1-dimethyl-pyrrolidin-1-ium-2-carbonyl]piperazine-1-carbonyl]phenyl]-1-methyl-5-[1-[5-(methylamino)-2-pyridyl]-3-(trifluoromethyl)pyrazol-4-yl]imidazole-2-carboxamide; formate] here?
A: Its IC90 is 370 nM.

Q: CNc1ccc(-n2cc(-c3cnc(C(=O)Nc4ccc(C(=O)N5CCN(C(=O)C6CC[N+](C)(C)CC6)CC5)c(C)c4)n3C)c(C(F)(F)F)n2)nc1 [Example E7, N-[4-[4-(1,1-dimethylpiperidin-1-ium-4-carbonyl)piperazine-1-carbonyl]-3-methyl-phenyl]-1-methyl-5-[1-[5-(methylamino)-2-pyridyl]-3-(trifluoromethyl)pyrazol-4-yl]imidazole-2-carboxamide; formate] was tested. Which IC90 did it give?
A: The IC90 was 330 nM.

Q: CNc1ccc(-n2cc(-c3cnc(C(=O)Nc4ccc(C(=O)N5CCN(C(=O)[C@@H]6CC[N+](C)(C)C[C@H]6O)CC5)c(Cl)c4)n3C)c(C(F)(F)F)n2)nc1 [Example E8, N-[3-chloro-4-[4-[(3S,4R)-3-hydroxy-1,1-dimethyl-piperidin-1-ium-4-carbonyl]piperazine-1-carbonyl]phenyl]-1-methyl-5-[1-[5-(methylamino)-2-pyridyl]-3-(trifluoromethyl)pyrazol-4-yl]imidazole-2-carboxamide; formate] was tested. Which IC90 did it give?
A: The IC90 was 220 nM.

Q: Cn1c(-c2cn(-c3ccc(CO)cn3)nc2C(F)(F)F)cnc1C(=O)Nc1ccc(C(=O)N2CCN(C(=O)C3CC[N+](C)(C)CC3)CC2)c(Cl)c1 [Example F1, N-[3-Chloro-4-[4-(1,1-dimethylpiperidin-1-ium-4-carbonyl)piperazine-1-carbonyl]phenyl]-5-[1-[5-(hydroxymethyl)-2-pyridyl]-3-(trifluoromethyl)pyrazol-4-yl]-1-methyl-imidazole-2-carboxamide; formate] was tested. Which IC90 did it give?
A: The IC90 was 390 nM.

Q: Which IC90 does the source give for COCCOc1ccc(-n2cc(-c3cnc(C(=O)Nc4ccc(C(=O)N5CCN(C(=O)C6CC[N+](C)(C)CC6)CC5)c(Cl)c4)n3C)c(C(F)(F)F)n2)nc1 [Example G1, N-[3-Chloro-4-[4-(1,1-dimethylpiperidin-1-ium-4-carbonyl)piperazine-1-carbonyl]phenyl]-5-[1-[5-(2-methoxyethoxy)-2-pyridyl]-3-(trifluoromethyl)pyrazol-4-yl]-1-methyl-imidazole-2-carboxamide; formate] here?
A: The IC90 was 350 nM.

Q: Which IC90 does the source give for Cn1c(-c2cn(-c3ccc(N)cn3)nc2C(F)(F)F)cnc1C(=O)Nc1ccc(C(=O)N2CCC(C(=O)N3CC[N+](C)(C)CC3)CC2)c(Cl)c1 [Example H1, 5-[1-(5-Amino-2-pyridyl)-3-(trifluoromethyl)pyrazol-4-yl]-N-[3-chloro-4-[4-(4,4-dimethylpiperazin-4-ium-1-carbonyl)piperidine-1-carbonyl]phenyl]-1-methyl-imidazole-2-carboxamide; formate] here?
A: Its IC90 is 610 nM.

Q: For Cn1c(-c2cn(-c3ccc(N)cn3)nc2C#N)cnc1C(=O)Nc1ccc(C(=O)N2CCN(C(=O)C3CC[N+](C)(C)CC3)CC2)c(Cl)c1 [Example J2, 5-[1-(5-amino-2-pyridyl)-3-cyano-pyrazol-4-yl]-N-[3-chloro-4-[4-(1,1-dimethylpiperidin-1-ium-4-carbonyl)piperazine-1-carbonyl]phenyl]-1-methyl-imidazole-2-carboxamide; 2,2,2-trifluoroacetate], which IC90 is on record?
A: Its IC90 is 9830 nM.

Q: With Cc1nn(-c2ccc(N)cn2)cc1-c1cnc(C(=O)Nc2ccc(C(=O)N3CCN(C(=O)C4CC[N+](C)(C)CC4)CC3)c(Cl)c2)n1C [Example J3, 5-[1-(5-amino-2-pyridyl)-3-methyl-pyrazol-4-yl]-N-[3-chloro-4-[4-(1,1-dimethylpiperidin-1-ium-4-carbonyl)piperazine-1-carbonyl]phenyl]-1-methyl-imidazole-2-carboxamide; formate] as the compound, how does the IC90 read?
A: The IC90 was 10000 nM.

Q: How did the IC90 turn out when Cc1c[nH]nc1-n1cc(-c2cnc(C(=O)Nc3ccc(C(=O)N4CCN(C(=O)C5CC[N+](C)(C)CC5)CC4)c(Cl)c3)n2C)c(C(F)(F)F)n1 [Example K2, N-[3-chloro-4-[4-(1,1-dimethylpiperidin-1-ium-4-carbonyl)piperazine-1-carbonyl]phenyl]-1-methyl-5-[1-(4-methyl-1H-pyrazol-3-yl)-3-(trifluoromethyl)pyrazol-4-yl]imidazole-2-carboxamide; 2,2,2-trifluoroacetate] was run?
A: Its IC90 is 4360 nM.

Q: With COCc1c[nH]nc1-n1cc(-c2cnc(C(=O)Nc3ccc(C(=O)N4CCN(C(=O)C5CC[N+](C)(C)CC5)CC4)c(Cl)c3)n2C)c(C(F)(F)F)n1 [Example K3, N-[3-chloro-4-[4-(1,1-dimethylpiperidin-1-ium-4-carbonyl)piperazine-1-carbonyl]phenyl]-5-[1-[4-(methoxymethyl)-1H-pyrazol-3-yl]-3-(trifluoromethyl)pyrazol-4-yl]-1-methyl-imidazole-2-carboxamide] as the compound, how does the IC90 read?
A: Its IC90 is 1300 nM.

Q: CNC(=O)CCNc1ccc(-n2cc(-c3cnc(C(=O)Nc4ccc(C(=O)N5CCN(C(=O)C6CC[N+](C)(C)CC6)CC5)c(Cl)c4)n3C)c(C(F)(F)F)n2)nc1 [Example L2, N-[3-chloro-4-[4-(1,1-dimethylpiperidin-1-ium-4-carbonyl)piperazine-1-carbonyl]phenyl]-5-[1-[5-[[3-keto-3-(methylamino)propyl]amino]-2-pyridyl]-3-(trifluoromethyl)pyrazol-4-yl]-1-methyl-imidazole-2-carboxamide] was tested. Which IC90 did it give?
A: The IC90 was 330 nM.

same assay, conditions: Acinetobacter baumannii, ATCC17961, 16 h, read-out: ATCC 17961 IC90

Q: How did the IC90 turn out when CNc1ccc(-n2cc(-c3cnc(C(=O)Nc4ccc(C(=O)N5CCN(C(=O)C6CC[N+](C)(C)CC6)CC5)c(Cl)c4)n3C)c(C(F)(F)F)n2)nc1 [Example E1, N-[3-Chloro-4-[4-(1,1-dimethylpiperidin-1-ium-4-carbonyl)piperazine-1-carbonyl]phenyl]-1-methyl-5-[1-[5-(methylamino)-2-pyridyl]-3-(trifluoromethyl)pyrazol-4-yl]imidazole-2-carboxamide; formate] was run?
A: The IC90 was 100 nM.

Q: Cn1c(-c2cn(-c3ccc(N)nn3)nc2C(F)(F)F)cnc1C(=O)Nc1ccc(C(=O)N2CCN(C(=O)C3CC[N+](C)(C)CC3)CC2)c(Cl)c1 [Example K1, 5-[1-(6-Aminopyridazin-3-yl)-3-(trifluoromethyl)pyrazol-4-yl]-N-[3-chloro-4-[4-(1,1-dimethylpiperidin-1-ium-4-carbonyl)piperazine-1-carbonyl]phenyl]-1-methyl-imidazole-2-carboxamide; 2,2,2-trifluoroacetate] was tested. Which IC90 did it give?
A: The IC90 was 1600 nM.
